# Measured values taken from PMC9015904 (ChemMedChem, 2022).
# What was measured:
# [1] = system: male C57BL/6NHsd mice; settings: mouse, in vivo
# [2] = system: male C57BL/6NHsd mice; settings: mouse, in vivo; remark: listed apart in the source
# [3] = system: KOR; experiment: Literature binding affinity at KOR; settings: from literature Ki values
# [4] = system: MOR; experiment: Literature binding affinity at MOR; settings: from literature Ki values
# [5] = system: male C57BL/6NHsd mice; settings: mouse, in vivo; remark: listed apart in the source
# [6] = biological target: KOR; settings: cited from earlier work
# [7] = biological target: MOR; settings: cited from earlier work
# [8] = biological target: DOR; settings: cited from earlier work
compound,measurement,setting,value
COC(=O)[C@@H]1C[C@H](OC(=O)c2ccccc2)C(=O)[C@H]2[C@@]1(C)CC[C@H]1C(=O)O[C@H](c3ccoc3)C[C@]21C [Herkinorin],latency to hind paw lick or flutter compared to vehicle,[1],"Neither salivinorin A, herkinorin, nor compound 10 were observed to significantly influence the latency to paw response"
same,latency to tail withdrawal compared to vehicle,[2],"Neither salvinorin A, herkinorin, nor compounds 2 or 10 demonstrated significant antinociception"
same,fold lower affinity for KOR compared to salvinorin A,[3],47 fold
same,fold higher affinity for MOR compared to salvinorin A,[4],≥ 83 fold
same,time spent in the open arms compared to vehicle,[5],"notable increase in open arm time, but this was not statistically significant"
same,Kd,[6]; read-out: KD [nM] (KOR),90 ± 2 nM
same,Ki,[6]; read-out: Ki (KOR),90 nM
same,Kd,[7]; read-out: KD [nM] (MOR),12 ± 1 nM
same,Ki,[7]; read-out: Ki (MOR),12 nM
same,Kd,"[8]; read-out: KD [nM] (DOR), Literature values",1170 ± 60 nM
same,Ki,[8]; read-out: Ki (DOR),1170 nM
